Legend:
[1] = test system: MM1 S multiple myeloma cell line derived xenograft; experiment: MM1 S multiple myeloma CDX efficacy study; assay type: in vivo, immunodeficient mice; conditions: oral daily 1, 3 and 10 mg/kg
Protocol: Cell line derived xenograft (CDX) models were produced for the MM1 S multiple myeloma (MM) cell line in immunodeficient mice. Oral dosing of Compound 345 was performed daily at doses of 1 mg/kg, 3 mg/kg, and 10 mg/kg as well as lenalidomide at 50 mg/kg and a no-drug vehicle control. Tumor volumes were measured (mm^3) at regular intervals over the course of 20 to 50 days depending on the animal.
In vivo efficacy study: NCI-H1155, MM1 S, WSU-DLCL2, DOHH-2 cells were maintained in vitro in individual medium and conditions as recommended by the providers and incubated at 37° C. in an atmosphere of 5% CO2 in air. 0.5 million (NCI-H1155), 10 million (MM1S) or 5 million (WSU-DLCL2 and DOHH-2) cells were resuspended in typically 0.1-0.2 mL of PBS with Matrigel (50:50) and were inoculated into 6-8 weeks old BALB/c nude female (NCI-H115, WSU-DLCL2), NOD/SCID (MM1S) or CB-17SCID (DOHH-2) mice and allowed to grow to 150-200 mm3 in size. Mice were dosed orally (PO) and daily (QD) with either vehicle or Compound 345 typically at 1.0 mg/kg, 3.0 mg/kg and 10 mg/kg. […] Tumor volumes were measured at least twice weekly during the treatment period using a caliper and the volume was expressed in mm3 using the formula: V=0.5 a×b2 where a and b were the long and short diameters of the tumor, respectively. […] Data are expressed as the mean±SEM. All data was analyzed using GraphPad Prism 8.1.2 (GraphPad).

[2] = molecular target: GSPT1 (Homo sapiens, UniProt P15170+Q96SW2); experiment: GSPT1 degradation by Compound 345 in cancer cell lines (western blot); assay type: cell-based; parameters: endogenous in cells; host or cells: MM1 S (ATCC CRL-2974)
GSPT1, sequence (P15170 whole entry): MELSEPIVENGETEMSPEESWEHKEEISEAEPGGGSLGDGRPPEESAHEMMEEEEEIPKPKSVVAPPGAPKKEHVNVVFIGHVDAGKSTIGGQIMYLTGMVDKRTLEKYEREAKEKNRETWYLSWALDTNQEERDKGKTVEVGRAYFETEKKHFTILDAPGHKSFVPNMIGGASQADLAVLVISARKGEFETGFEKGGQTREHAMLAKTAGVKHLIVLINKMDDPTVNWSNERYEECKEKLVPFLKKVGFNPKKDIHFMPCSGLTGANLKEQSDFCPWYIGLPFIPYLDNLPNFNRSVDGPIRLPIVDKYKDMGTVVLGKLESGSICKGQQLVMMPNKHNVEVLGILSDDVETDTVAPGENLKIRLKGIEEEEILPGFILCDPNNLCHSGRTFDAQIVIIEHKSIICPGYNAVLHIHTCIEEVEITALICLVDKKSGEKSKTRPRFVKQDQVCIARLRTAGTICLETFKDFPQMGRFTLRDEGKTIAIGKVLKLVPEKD
GSPT1, sequence (Q96SW2 whole entry): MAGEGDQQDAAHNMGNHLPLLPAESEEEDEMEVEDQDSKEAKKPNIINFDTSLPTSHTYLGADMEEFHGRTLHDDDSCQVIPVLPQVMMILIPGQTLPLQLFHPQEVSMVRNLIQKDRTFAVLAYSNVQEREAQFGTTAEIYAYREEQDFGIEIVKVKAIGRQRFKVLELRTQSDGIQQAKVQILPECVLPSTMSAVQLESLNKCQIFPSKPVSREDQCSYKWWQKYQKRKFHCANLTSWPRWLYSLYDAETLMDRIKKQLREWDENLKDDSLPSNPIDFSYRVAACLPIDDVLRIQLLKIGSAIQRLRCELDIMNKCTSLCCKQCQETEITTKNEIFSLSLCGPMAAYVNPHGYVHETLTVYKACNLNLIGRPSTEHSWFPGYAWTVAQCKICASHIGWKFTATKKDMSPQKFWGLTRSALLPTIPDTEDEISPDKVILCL
GSPT1, sequence (Q16531 whole entry partner): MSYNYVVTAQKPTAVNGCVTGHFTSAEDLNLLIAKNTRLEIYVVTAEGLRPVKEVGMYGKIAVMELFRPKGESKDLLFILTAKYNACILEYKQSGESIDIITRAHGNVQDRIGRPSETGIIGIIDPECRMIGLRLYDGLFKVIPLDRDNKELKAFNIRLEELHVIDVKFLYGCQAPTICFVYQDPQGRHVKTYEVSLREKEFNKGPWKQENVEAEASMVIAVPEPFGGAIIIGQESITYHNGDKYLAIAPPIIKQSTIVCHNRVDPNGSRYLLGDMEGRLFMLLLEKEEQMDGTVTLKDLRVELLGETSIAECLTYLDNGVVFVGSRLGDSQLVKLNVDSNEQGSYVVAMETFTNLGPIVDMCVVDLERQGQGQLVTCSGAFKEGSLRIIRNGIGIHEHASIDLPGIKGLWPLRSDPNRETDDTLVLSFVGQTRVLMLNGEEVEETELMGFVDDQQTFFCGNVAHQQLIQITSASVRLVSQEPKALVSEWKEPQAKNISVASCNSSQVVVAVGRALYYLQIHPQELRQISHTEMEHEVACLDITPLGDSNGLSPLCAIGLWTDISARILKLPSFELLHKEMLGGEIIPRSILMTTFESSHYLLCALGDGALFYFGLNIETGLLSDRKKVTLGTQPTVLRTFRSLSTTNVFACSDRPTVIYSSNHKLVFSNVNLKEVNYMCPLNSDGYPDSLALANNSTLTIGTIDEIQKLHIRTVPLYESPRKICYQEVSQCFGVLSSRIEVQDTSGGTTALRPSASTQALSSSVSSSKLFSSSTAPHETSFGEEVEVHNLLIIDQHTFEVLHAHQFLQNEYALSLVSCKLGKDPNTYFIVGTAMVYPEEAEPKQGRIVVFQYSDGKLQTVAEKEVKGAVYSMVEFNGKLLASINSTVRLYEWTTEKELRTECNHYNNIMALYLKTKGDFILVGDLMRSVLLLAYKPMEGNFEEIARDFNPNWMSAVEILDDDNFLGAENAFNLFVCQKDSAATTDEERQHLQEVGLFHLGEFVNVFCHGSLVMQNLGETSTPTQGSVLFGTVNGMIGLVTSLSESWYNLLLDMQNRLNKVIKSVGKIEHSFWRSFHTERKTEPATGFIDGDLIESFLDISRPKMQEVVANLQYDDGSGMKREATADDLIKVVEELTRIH
Protocol: NCI-H1155 and ABC-1 were taken as representative of N-Myc positive NSCLC. NCI-H2023 and NCI-H441 as of N-Myc low representatives. 10A: western blotting analysis performed after 6 (NCI-H1155 and ABC-1) or 24 hr (NCI-H2023 and NCI-H441) posttreatment. […] 10B: corresponding densitometry analyses of GSPT1 normalized to GAPDH. DC50 and Dmax as indicated.
NCI-H1155 and ABC-1 were taken as representative of N-Myc high NSCLC. NCI-H2023 and NCI-H441 as of N-Myc low representatives. Left: densitometry analysis of GSPT1 normalized to GAPDH from western blotting following treatment with Compound 345 (as indicated). Right: 72 hr viability assay following treatment with Compound 345 as assessed by Cell Titer Glo. For both the GSPT1 expression plot and the cell viability plot, two Myc-driven cancer cell lines are represented by upright triangles and diamonds. Two non-Myc-driven cancer cell lines are represented by upside down triangles and circles.
NCI-H1155 and NCI-H2023 were taken as representative of N-Myc high and low NSCLC. 12A: western blot analysis probing for GSPT1 and N-Myc following treatment with Compound 345 (as indicated). Tubulin was used as a loading control. N-Myc could not be detected by western blotting in the NCI-H2023 line. 12B: Single-sample gene set enrichment analysis (ssGSEA) results for a Myc target gene set at 6 hours (left) and 24 hours (right) after treatment. ssGSEA scores were normalized to DMSOs for each cell line and averaged for three replicates. Error bars denote+/−1 s.d. across replicates.
NCI-H1836 and NCI-H1876 were taken as two representatives of L-Myc high SCLC. Western blot analysis probing for GSPT1 and L-Myc following treatment with Compound 345 as indicated. GAPDH was used as a loading control.
FIGS. 16A, 16B and 16C: Activity of Compound 345 in the c-Myc high multiple myeloma MM1S cell line. […] GAPDH was used as a loading control. […] Lenalidomide was used as a benchmark. 16C: Antiproliferative activity of Compound 345 (as indicated) following treatment with Compound 345 for 72 hr as assessed by Cell Titer Glo assay.
(§1) FIGS. 18A, 18B and 18C: Activity of Compound 345 in the c-Myc high WSU-DLCL2 lymphoma cell line. […] GAPDH was used as a loading control. 18B: Antiproliferative activity of Compound 345 (as indicated) following treatment with Compound 345 for 72 hr as assessed by Cell Titer Glo assay. […] Mice were dosed daily PO with vehicle or Compound 345 at 3, 10 mg/kg (as indicated). Tumor volumes were measured twice weekly. X-axis represents the number of days for treatment duration; y-axis represents mean tumor volume (in mm^3)±SEM. CHOP was used as a positive control for this model. Drug-free vehicle is represented by black circles; CHOP combination represented by light squares; Compound 345 3 mg/kg represented by triangles; Compound 345 10 mg/kg represented by dark squares.
as §1, with “19A, 19B,” for “18A, 18B”, “19C:” for “18C:”, “DOHH-2” for “WSU-DLCL2”, “19B:” for “18B:”, “model.” for “model. Drug-free vehicle is represented by black circles; CHOP combination represented by light squares; Compound 345 3 mg/kg represented by triangles; Compound 345 10 mg/kg represented by dark squares.”
Western blot analysis performed 24 hr post treatment initiation. GAPDH was used as a loading control. GSPT1 DC50 and Dmax as indicated.

[3] = test system: cells with wildtype (WT) cereblon; experiment: Viability in cells with wildtype cereblon; assay type: cell-based
Text: X-axis axis represents m concentration of compound 8; y-axis represents viability normalized to DMSO.

Structure (SMILES) | tumor volume [1] | GSPT1 level ([2]; DOHH-2 lymphoma cell line, 24 hr post treatment) | GSPT1 level ([2]; MM1S multiple myeloma cell line, 24 hr post treatment) | GSPT1 level ([2]; NSCLC lines NCI-H1155, ABC-1 (6 hr), NCI-H2023, NCI-H441 (24 hr)) | GSPT1 level, timecourse ([2]; NSCLC lines NCI-H1155 and NCI-H2023) | GSPT1 level, timecourse ([2]; SCLC lines NCI-H1836 and NCI-H1876 (L-Myc high)) | GSPT1 level ([2]; WSU-DLCL2 lymphoma cell line, 24 hr post treatment) | induction of death (viability normalized to DMSO) [3]
O=C1CCC(N2Cc3ccc(COC(=O)Nc4cc(OC(F)(F)F)ccc4F)cc3C2=O)C(=O)N1 (centres unmarked) [Compound 345, (2-(2,6-dioxopiperidin-3-yl)-3-oxoisoindolin-5-yl)methyl(2-fluoro-5-(trifluoromethoxy)phenyl)carbamate] | anti-tumor activity | Degradation of GSPT1 | Degradation of GSPT1 | Induced-degradation of GSPT1 | degradation of GSPT1 | degradation of GSPT1 | Degradation of GSPT1 | 
Cc1ccc(NC(=O)NCc2ccc3c(c2)C(=O)N(C2CCC(=O)NC2=O)C3)cc1Cl (centres unmarked) [Compound 8] |  |  |  |  |  |  |  | did induce death
